# Tests used:
# Type in all cases: in vivo, mouse
# [1] = test system: Complex I, Cytochrome C Oxidase, Citrate synthase; test: Electron transport chain enzyme activities in heart homogenates; conditions: TAC hearts, Sirt3Ko and WT heart lysate
# Description: Enzyme Activities. Citrate synthase (CS), Complex I (CI) and Cytochrome C Oxidase (CIV), and Mrpp2 dehydrogenase activities were determined in heart tissue homogenates at 30° C. using a protocol adapted from previously published methods (Spinazzi et al., 2012). Briefly, for CS activity frozen cardiac tissue (25 mg) was homogenized at 4° C. in CelLytic™ MT Cell Lysis Reagent (C3228) and then incubated on ice for 30 minutes. The samples were then centrifuged at 10,000×g for 10 minutes at 4° C. and protein concentration determined. CS activity was analyzed in 100 mM Tris buffer containing 0.1% Triton X-100, pH 8.0 as previously described (Spinazzi et al., 2012). For CIV activity, 25 mg of cardiac tissue was homogenized at 4° C. in 50 mM potassium phosphate buffer containing 1 mM EDTA, and 0.1% Triton X-100 (pH 7.4; final concentration, 5 mg tissue/mL). The samples were incubated on ice for 30 minutes followed by centrifugation at 10,000×g for 10 minutes at 4° C. CIV activity was analyzed in 100 mM potassium phosphate buffer as previously described (Spinazzi et al., 2012). For Cl activity, 25 mg of cardiac tissue was homogenized at 4° C. in 50 mM potassium phosphate buffer containing 1 mM EDTA, and 0.1% Triton X-100 (pH 7.4; final concentration, 5 mg tissue/mL). The samples were incubated on ice for 30 minutes followed by centrifugation at 10,000×g for 10 minutes at 4° C. Cl activity was analyzed in 100 mM potassium phosphate buffer as previously described (Spinazzi et al., 2012). In parallel, a separate reactions containing the same quantity of reagents and sample but with the addition of 10 μl of 1 mM rotenone solution. The reactions were started by adding 6 μl of ubiquinone (10 mM), mix and follow the decrease of absorbance at 340 nm for 2 min. The dehydrogenase activity of Mrpp2 was measured as described (Falk et al., 2016) in the reverse direction for reduction of acetoacetyl-CoA (30 mM) to L-3-hydroxyacyl-CoA. The reaction was monitored as the decrease of absorbance at 340 nm.
# [2] = test system: cardiac mitochondria; test: Isolated cardiac mitochondria respiration (oxygen electrode); conditions: both genotypes
# Description: Mitochondrial Isolation from cardiac tissue. Hearts were excised from mice, the aortas and atria were removed. Heart tissues were rinsed briefly in ice-cold mitochondria isolation medium (MIM) (70 mM sucrose, 220 mM mannitol, 5 mM MOPS, 1 mM EDTA, 0.025% fatty acid-free BSA, pH 7.4 with 5M KOH) to remove residual blood. Tissues were minced on ice and resuspended in fresh MIM, followed by trypsin digestion (10 ug/ml) and incubated on ice for 10 min. Trypsin digestion was stopped by the addition of trypsin inhibitor (0.5 mg/ml) and additional BSA (1 mg/ml) to MIM. The tissue pellets were resuspended in fresh MIM containing 1 mg/ml BSA, and transferred to a Teflon-glass tube and homogenized on ice with a Teflon pestle. The homogenates were centrifuged for 10 min at 800×g at 4° C. The supernatants were collected and centrifuged for 10 min at 8,000×g at 4° C. The supernatant was discarded and the mitochondrial pellets were resuspended in MIM to wash. The resuspension was centrifuged for 10 min at 8,000×g at 4° C., and the supernatant discarded. The mitochondrial pellet was resuspended to a concentrated volume for protein quantification by BCA Assay (Pierce).
# Mitochondrial respirations. Isolated mitochondria respiration experiments were performed in an Clark type oxygen electrode Oxytherm System (Hansatech Instruments) at 30C. Briefly, freshly isolated mitochondria were added to respiration buffer (125 mM KCl, 20 mM HEPES, 3 mM MgCl2, 400 μM EGTA, 5 mM KH2PO4, 0.2% BSA (fatty acid free), pH 7.2) and placed in the respiration chamber to measure baseline respiration (State 1). The change in oxygen levels following the immediate addition of substrates (pyruvate/malate (5 mM/2 mM) or palmitoylcarnitine/malate (50 μM/2 mM) (State 2) followed by the sequential addition of 2.5 mM ADP (State 3), […] Oligomycin (State 4p) and 1 μM FCCP (FCCP Max). Antimycin A (2.5 μM) was added last to measure the residual oxygen consumption not accounted for by the electron transfer chain and it was subtracted from the previous measurements.
# [3] = test system: WT TAC heart transcriptome; test: RNA sequencing with GSEA of TAC hearts; conditions: NR treated TAC hearts vs vehicle
# Description: RNA Sequencing. Total RNA was extracted from 30 mg of heart tissue using the Qiagen RNeasy kit. RNA Sequencing and quality control was performed BGI (BGISEQ-500). Data Analysis-RNAseq samples were aligned using Tophat (Trapnell et al., 2009) (version 2.0.13). Genelevel read counts were quantified using htseq-count (Anders et al., 2015). Genes expressed above 4TPM in at least 2 samples were used. In differential expression (DESeq), A gene to have total normalized reads above 10 across all samples. DeSeq (Anders and Huber, 2010) was used for differential gene expression analysis. Genes with fold change >1.5 and FDR <0.1 were considered differentially expressed. GSEA was performed using Broad Institute software against the Reactome database. Iregulon v1.3 was used to predict transcription factor binding motif. The following options were used: Motif collection 10 K (9713 PWMs), putative regulatory region 20 kb centered around TSS (7 species). Program default settings for Recovery and Transcription factor prediction options were selected for the analysis.
smiles,measurement,setting,value
"NC(=O)c1ccc[n+]([C@@H]2O[C@H](CO)[C@@H](O)[C@H]2O)c1 [NR, Nicotinamide riboside chloride]",Activity of citrate synthase,[1],no change
same,Activity of complex I,[1],restored
same,Activity of cytochrome c oxidase (COIV),[1],restored
same,Mitochondrial respiratory function (State 3 respiration),"[2]; TAC, Complex I substrates",improved
same,Palmitoylcarnitine (PLC) supported State 3 respiration (ADP stimulated),"[2]; cardiac mitochondria from ISO treated hearts, NR",restored
same,Pathways of genes significantly downregulated (GSEA),[3],enriched in pathways relating to collagen formation and extracellular matrix organization
same,Pathways of genes significantly upregulated (GSEA),[3],enriched in pathways relating to mitochondrial metabolism

# Source: patent US20240216412A1, “OXIDIZED NICOTINAMIDE ADENINE DINUCLEOTIDE (NAD+) PRECURSOR TREATMENT FOR HEART FAILURE ALLEVIATION INDEPENDENT OF MITOCHONDRIAL PROTEIN DEACETYLATION” (University of Washington, priority 2022, published 2024)
